Data on 18 compounds can be found in patent EP3959200B1, “NEW TRIAZOLE AND TRIAZOLOTHIADIAZINE DERIVATIVES EXERTING CYTOTOXIC AND APOPTOTIC EFFECTS ON A549 CELLS THROUGH AKT INHIBITION” (Anadolu Universitesi, priority 2020, dated 2022).

Values after ≈ are worked out from the molar mass of the structure shown.

The subject of series [1] is kidney fibroblast (BHK-21) cells. Particulars: cited from earlier work.
For another series, the system named is HCT116 cell line. As to conditions: cited from earlier work.
For a further series, the system named is HeLa cell line. Particulars: cited from earlier work.
In another series the test system is PC-3 cell line. Particulars: cited from earlier work.
Series [2] has as its system kidney cancer (OU-31) cell line. More on the design: concentration or dose not given beside the values. As to conditions: cited from earlier work.
The test system of the next series is K562 cell line. Particulars: cited from earlier work.
Series [3] relates to A549 human lung adenocarcinoma cells. The series can be described thus: MTT cytotoxicity assay. Type of series: cell-based. Particulars: for IC50: Homo sapiens, A549, read-out: IC50 values A549 cell line; for SI values: SI= IC50 for NIH/3T3 cell line / IC50 for A549 cell line. As to the method:
(§1) In order to be used from this stock, the concentrations ranging from 0.12 to 500 µg/mL (with the highest DMSO ratio of 0.1%) were prepared.
A549 human lung adenocarcinoma cells (ATCC® CCL-185™) were grown in RPMI 1640 medium supplemented with 10% fetal bovine serum, 1% penicillin/streptomycin, in an incubator with carbon dioxide, in a culture medium at 37°C at 95% relative humidity.
(§2) MTT protocol was applied to determine cell viability. […] At the end of the incubation period, 20 µL of MTT dye (5 mg/mL) was added into each well, and the cells were incubated for an additional 4 hours at 37°C. After this process, MTT dye was removed from the cells, 200 µL of DMSO was added to each well and left to incubate for 10 minutes. Color change was detected at 540 nm in the ELx808-IU Bio-Tek plate reader. Inhibition% values were determined for each concentration of compounds. Inhibitory concentration 50 (IC50) values of the compounds were calculated by drawing a dose-response curve with their concentrations against these values. All experiments were carried out in triplicate. The results were given as mean±standard deviation. Inhibition% = 100−[(ODtest compound−ODblank/ODsolvent control−ODblank)×100] [formula]
Selective index (SI) values were determined using the following formula. SI […] IC50 for NIH/3T3 cell line/IC50 for A549 cell line [formula]

A further series relates to A549 cells. As to the kind of experiment: FITC Annexin V/PI apoptosis detection by flow cytometry. As to conditions: at IC50 concentrations. Type of series: cell-based, human. On the procedure:
The cells incubated with the compounds were centrifuged at 400 × g for 5 minutes in labeled tubes and washed twice with 1xPBS. Then, the cells were suspended in 1×Annexin-V binding solution at 1×10^6 cells/mL and 100 µL of this cell solution was taken and transferred to tubes. The cells were treated with 5 µL Annexin V FITC and 5 µL of propidium iodide (PI) dyes. Then, the cells were kept at room temperature in the dark for 15 minutes to allow the dye to bind. 400 µL of 1×Annexin-V binding cell solution was transferred to flow cytometry tubes and the amount of early and late apoptotic cells was determined relative to the positive control using the BD FACSAria flow cytometer FACSDiva version 6.1.1 software.

The next series relates to Akt. As to the kind of experiment: Akt activity assay (Akt colorimetric in cell ELISA). Type of series: cell-based, human. Particulars: for Akt inhibitory effects: result in words. On the procedure: Briefly, the media was removed from the wells and 100 µL of 4% formaldehyde was added. The plate was incubated for 15 minutes in a fume hood. Formaldehyde was removed and the plate was washed twice with 1X […] solution (TBS) to 100 µL/well. 1X TBS was removed and 100 µL of 1X permeabilization buffer was added to each well and left at room temperature for 15 minutes. After removing the 1X permeabilization buffer, the wells were washed once with 100 µL of 1X TBS. 1X TBS was removed and 100 µL of the quenching solution was added to the wells and left at room temperature for 20 minutes. Then, this solution was removed. The plate was washed once with 1X TBS, 100 µL of blocking buffer was added to the wells and left at room temperature for 30 minutes. At the end of this period, the blocking buffer was removed and 50 µL of primary antibody was added to the wells. The plate was closed with a sealer and incubated overnight at 4°C. The primary antibody was removed and plate wells were washed three times with 100 µL of wash buffer. After removing the wash buffer, 100 µL of diluted horseradish peroxidase (HRP) conjugate was added to the wells. It was incubated for 30 minutes at room temperature. After removing this conjugate, 100 µL of 3,3',5,5'-tetramethylbenzidine (TMB) stop solution was added and absorbance was measured at 450 nm for 30 minutes. The experiment was carried out in triplicate. The values of the blank wells were subtracted from the values of the untreated control and treated cells. The Akt activity% was determined as the relative absorbance of treated versus untreated control cells.

Series [4] relates to lung cancer (H-157) cell line. Particulars: cited from earlier work.
Series [5] deals with human colon epithelial cells (HT-29). Particulars: cited from earlier work.
Series [6] has as its system human lung adenocarcinoma (A549). As to conditions: cited from earlier work.
The test system of series [7] is breast adenocarcinoma (MCF-7). As to conditions: cited from earlier work.
Series [8] deals with ovarian carcinoma (SKOV3). As to conditions: cited from earlier work.
The next series has as its system colon carcinoma (HCT116). As to conditions: HCT116, MTT; read-out: LC50 (the source's name); cited from earlier work.
Series [9] has as its system breast adenocarcinoma (MCF-7). As to conditions: MCF-7, MTT; read-out: LC50 (the source's name); cited from earlier work.
The subject of series [10] is human epithelial cervical carcinoma (HeLa) cells. Particulars: MTT; cited from earlier work.
For series [11], the system named is NIH/3T3 mouse embryonic fibroblast cells. As to the kind of experiment: MTT cytotoxicity assay. The class given is cell-based. Particulars: Mus musculus, NIH3T3, 24 hours, read-out: IC50 values NIH/3T3 cell line. On the procedure:
as §1
NIH/3T3 mouse embryonic fibroblast cells (ATCC® CRL-1658™) were grown in DMEM medium supplemented with 10% fetal bovine serum, 1% penicillin/streptomycin, in an incubator with carbon dioxide, in a culture medium at 37°C at 95% relative humidity.
as §2

For the compound `Cc1ccc(C2=Nn3c(nnc3-c3ccncc3)SC2)cc1` [3-(pyridine-4-yl)-6-(p-tolyl)-7H-[1,2,4]triazolo[3,4-b][1,3,4]thiadiazine], the inhibition in series [1] is on record as 72.6%.

In the case of `COc1cc(-c2nnc(SCC(=O)c3ccc(C)cc3)n2N)cc(OC)c1OC` [2-(4-amino-5-(3,4,5-trimethoxyphenyl)-4H-1,2,4-triazole-3-ylthio)-1-(p-tolyl)ethanone], the IC50 is 0.37 µM in the series on HCT116 cell line, 2.94 µM in the series with HeLa cell line and 31.3 µM in the series with PC-3 cell line.

`O=C(CSc1nnc2n1N=C(c1ccc(Br)cc1)CS2)c1ccc(Br)cc1` [1-(4-bromophenyl)-2-((6-(4-bromophenyl)-7H-[1,2,4]triazolo[3,4-b][1,3,4]thiadiazine-3-yl)thio)ethanone]: in series [2], the growth was 46.76% and the inhibition is listed as 53.24%.

In the case of `Cc1ccccc1NCn1nc(C23CC4CC(CC(C4)C2)C3)[nH]c1=S` [5-(adamantan-1-yl)-2-[(o-tolylamino)methyl]-2,4-dihydro-3H-1,2,4-triazole-3-thione], the IC50 with K562 cell line was 25.4 ± 0.89 µM.

`S=c1[nH]c(C23CC4CC(CC(C4)C2)C3)nn1CNc1ccccc1Cl` [5-(adamantan-1-yl)-2-[((2-chlorophenyl)amino)methyl]-2,4-dihydro-3H-1,2,4-triazole-3-thione]: in the series on K562 cell line, the IC50 is 27.1 ± 5.35 µM.

Turning to `O=c1[nH]cc(F)c(=O)[nH]1` [5-fluorouracil], the IC50 in the series on HCT116 cell line was 68.7 µM; in the series on HeLa cell line, 57.2 µM; in the series on PC-3 cell line it was 57 µM.

As for `Fc1ccccc1NCn1nc(C23CC4CC(CC(C4)C2)C3)[nH]c1=S` [5-(adamantan-1-yl)-2-[((2-fluorophenyl)amino)methyl]-2,4-dihydro-3H-1,2,4-triazole-3-thione], the IC50 with K562 cell line was 27.7 ± 2.46 µM.

For the compound `N.N.[Cl][Pt][Cl]` [Cisplatin, reference compound], the “IC50 values A549 cell line” value in series [3] (MTT, 24 hours) was found to be 11.50 ± 0.71 µg/mL. Besides, in the series with A549 cells, the “Early apoptotic cells %” value came out at 1.8%, the “Late apoptotic cells %” value is listed as 5.8% and the Necrosis % turned out to be 7.0%. Moreover, in the series with A549 cells (early plus late apoptotic cells), the apoptotic activity was 7.6%. The Inhibition % in the series with Akt (5.75 µg/mL, 24 hours) is listed as 40.70±1.62%. In addition, the Inhibition % in the series with Akt (11.50 µg/mL, 24 hours) is given as 97.89±0.86%. Also, in the series with Akt (24 hours), the “IC50 value (Akt inhibitory effects)” value turned out to be 7.00 ± 0.50 µg/mL. In addition, the IC50 in the series on K562 cell line was 5.45 ± 0.18 µM. The IC50 in [4] is 1310 ± 30 nM.

As for `CS(=O)(=O)c1ccc(Cc2nnc3n2N=C(c2ccccc2)CS3)cc1` [3-(4-(methylsulfonyl)benzyl)-6-phenyl-7H-[1,2,4]triazolo[3,4-b][1,3,4]thiadiazine], the IC50 in [5] was 25 µM.

In the case of `COc1cc(-c2nnc3n2N=C(c2ccc(C)cc2)CS3)cc(OC)c1OC` [6-(p-tolyl)-3-(3,4,5-trimethoxyphenyl)-7H-[1,2,4]triazolo[3,4-b][1,3,4]thiadiazine], the IC50 in [6] is 600 ± 20 nM; in [7], 2750 ± 50 nM; in series [8], 3430 ± 330 nM.

As for `O=C(CSc1nnc2n1N=C(c1ccc(F)cc1)CS2)c1ccc(F)cc1` [1-(4-fluorophenyl)-2-((6-(4-fluorophenyl)-7H-[1,2,4]triazolo[3,4-b][1,3,4]thiadiazine-3-yl)thio)ethanone], in series [2], the growth is listed as 47.42% and the inhibition is 52.58%.

Regarding `COc1cccc(C2=Nn3c(nnc3-c3ccncc3)SC2)c1` [6-(3-methoxyphenyl)-3-(pyridine-4-yl)-7H-[1,2,4]triazolo[3,4-b][1,3,4]thiadiazine], the inhibition in series [1] was 73.3%.

For `S=C(Nc1ccc(Oc2ccccc2)cc1)Nc1nc(-c2nnc(S)n2-c2ccc(Oc3ccccc3)cc2)cs1` [1-[4-(5-Mercapto-4-(4-phenoxyphenyl-4H-1,2,4-triazole-3-yl)thiazole-2-yl]-3-(4-phenoxyphenyl)thiourea], the CC50 in the series with colon carcinoma (HCT116) was 23.5 µM; in series [9] it was 17.4 µM.

In the case of `COc1cc([C@@H]2c3cc4c(cc3[C@@H](O[C@@H]3O[C@@H]5CO[C@@H](C)O[C@H]5[C@H](O)[C@H]3O)[C@H]3COC(=O)[C@H]23)OCO4)cc(OC)c1O` [etoposide], the figures for the IC50 in series [6], in series [7] and in series [8] were 2990 ± 220 nM, 1890 ± 160 nM and 2300 ± 120 nM, respectively.

With `O=c1oc2ccccc2cc1-c1nnc2n1N=C(c1ccc(-c3ccccc3)cc1)CS2` [3-(6-(Biphenyl-4-yl)-7H-[1,2,4]triazolo[3,4-b][1,3,4]-thiadiazine-3-yl)-2H-chromen-2-one], in series [4], the IC50 was 1010 ± 120 nM.

On to `CS(=O)(=O)c1ccc(Cc2n[nH]c(=S)n2N=Cc2c(F)cccc2Cl)cc1` [4-{ [(2-chloro-6-fluorophenyl)methylene]amino}-5-[4-(methylsulfonyl)benzyl]-2,4-dihydro-3H-1,2,4-triazole-3-thione], for which, in series [10], the EC50 was 25 µM.

As to `O=[N+]([O-])c1ccc(C2=Nn3c(CCc4cccnc4)nnc3SC2)cc1` [Compound 2b, G-(4-Nitrophenyl)-3-(2-(pyridine-3-yl)ethyl)-7H-[1,2,4]triazolo[3,4-b] [1,3,4]thiadiazine], the IC50 in series [3] (MTT, 24 hours) worked out at 8.13 ± 0.81 µg/mL (≈ 22.2 µM). This compound also displayed an SI values in series [3] above 61.50. Moreover, the IC50 in [11] is above 500 µg/mL. Besides, in the series on A549 cells, the “Early apoptotic cells %” value is on record as 2.4%, the “Late apoptotic cells %” value is reported as 2.4%, the Necrosis % turned out to be 2.5% and the Viable cells% was determined as 94.6%. This compound registered an Inhibition % with Akt (4.07 µg/mL, 24 hours) of 34.75±2.25%. Further, the Inhibition % in the series on Akt (8.13 µg/mL, 24 hours) turned out to be 33.16±14.16%. Also, the Akt inhibitory effects entry with Akt was “did not show significant Akt inhibitory effects”.

For the compound `Nn1c(CCc2cccnc2)nnc1SCC(=O)Nc1nccs1` [Compound 3a, 2-((4-Amino-5-(2-(pyridine-3-yl)ethyl)-4H-1,2,4-triazole-3-yl)thio)-N-(thiazole-2-yl)acetamide], the IC50 in series [3] (MTT, 24 hours) is 0.48 ± 0.04 µg/mL (≈ 1.33 µM). In [3], the SI values was 430.54. In addition, in series [11], the IC50 is 207 ± 11.6 µg/mL (≈ 572 µM). Further, in the series on A549 cells, the “Early apoptotic cells %” value is on record as 0.4%, the “Late apoptotic cells %” value is reported as 3.1%, the Necrosis % is given as 5.6% and the Viable cells% came to 91.0%. The compound also gave an Inhibition % in the series with Akt (0.48 µg/mL, 24 hours) of 54.76±5.33%. Moreover, the Akt inhibitory effects entry in the series with Akt is “did not show significant Akt inhibitory effects”.
